Measured values taken from publication PMC11843331, “Metal-Triggered FAD Reduction in D-2-Hydroxyglutarate Dehydrogenase from Pseudomonas aeruginosa PAO1” (ACS Bio & Med Chem Au, 2024).

Target: T1, PaD2HGDH; Pseudomonas aeruginosa D-2-hydroxyglutarate dehydrogenase (Pseudomonas aeruginosa, UniProt Q9I6H4)
T1 construct: gene PA0317; recombinant from pET20b(+) harboring PA0317 (GenScript), purified to homogeneity; FAD- and Zn2+-containing
T1 sequence (Q9I6H4 1-464): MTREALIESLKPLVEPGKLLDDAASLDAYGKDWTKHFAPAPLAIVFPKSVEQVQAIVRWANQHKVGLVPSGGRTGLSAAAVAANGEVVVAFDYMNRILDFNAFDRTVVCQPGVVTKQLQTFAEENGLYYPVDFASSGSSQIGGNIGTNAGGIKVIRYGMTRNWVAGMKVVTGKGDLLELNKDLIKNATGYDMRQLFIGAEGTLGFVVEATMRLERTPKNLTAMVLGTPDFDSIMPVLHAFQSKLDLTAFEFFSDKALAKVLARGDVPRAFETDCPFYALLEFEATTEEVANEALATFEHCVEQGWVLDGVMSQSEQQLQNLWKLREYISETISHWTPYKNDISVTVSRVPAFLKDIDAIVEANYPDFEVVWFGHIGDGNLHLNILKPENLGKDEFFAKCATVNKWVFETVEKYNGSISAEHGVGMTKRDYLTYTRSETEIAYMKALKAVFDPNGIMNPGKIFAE
Test: UV-visible absorption of enzyme-bound flavin, anaerobic reduction by D-malate
Type: binding
Conditions: 1 mM ZnCl2, pH 10.0, 25 °C; co-purified bound cofactor

## Cc1cc2nc3c(=O)[nH]c(=O)nc-3n(C[C@H](O)[C@H](O)[C@H](O)COP(=O)(O)OP(=O)(O)OC[C@H]3O[C@@H](n4cnc5c(N)ncnc54)[C@H](O)[C@@H]3O)c2cc1C [FAD]
  UV-visible absorption of enzyme-bound flavin, anaerobic reduction by D-malate: characteristic properties of a fully reduced PaD2HGDH-bound flavin, as previously reported
